Test results: PubChem BioAssay (NCI)
Where “and” joins values, the source holds several entries; their conditions need not be identical. Identical values can stand only once.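 Step 1: Grow cells in 96-well plates. Step 2: Expose to compound for 48 hours at 5 concentrations. Step 3: Interpolate endpoints linearly; if unreached, use highest concentration. GI50 is the concentration that inhibits growth by half. At the TGI there is no net growth.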

Key:
Experiment in all cases: growth of human tumour cells (NCI), 48 h
[1] = test system: SK-MEL-2 melanoma
[2] = test system: SF-539 CNS
[3] = test system: RXF 393 renal
[4] = test system: HCT-15 colon
[5] = test system: IGROV1 ovarian
[6] = test system: 786-0 renal
[7] = test system: HOP-92 NSCLC
[8] = test system: MALME-3M melanoma
[9] = test system: HCT-116 colon
[10] = test system: U251 CNS

Row | Compound | TGI [1] | TGI [2] | TGI [3] | TGI [4] | TGI [5] | TGI [6] | TGI [7] | TGI [8] | TGI [9] | TGI [10] | GI50 [1] | GI50 [2] | GI50 [3] | GI50 [4] | GI50 [5] | GI50 [6] | GI50 [7] | GI50 [8] | GI50 [9] | GI50 [10]
1 | C[C@]12CCC(=O)CC1CCCC2=O (some centres undefined) | > 100 µM | > 100 µM | > 100 µM | > 100 µM | > 100 µM | > 100 µM | > 100 µM | > 100 µM | > 100 µM | > 100 µM | – | – | – | – | – | – | – | – | – | –
2 | COc1ccc(Cl)c(Nc2nc3ccccc3nc2NS(=O)(=O)c2cccc(NC(=O)C(C)(C)N)c2)c1 | 32.1 µM and > 10 µM | 20.4 µM and > 10 µM | 9.03 µM and > 10 µM | 22 µM and > 10 µM | 6.63 µM and 4.86 µM | 19.8 µM and > 10 µM | 9.94 µM and 5.42 µM | 24.9 µM and > 10 µM | 25.8 µM and > 10 µM | 24.1 µM and > 10 µM | 14.9 µM and > 10 µM | 7.35 µM and 4.42 µM | 1.89 µM and 2.62 µM | 9.76 µM and 6.97 µM | 1.41 µM and 0.686 µM | 6.19 µM and 5.38 µM | 1.57 µM and 0.358 µM | 10.2 µM and > 10 µM | 12.8 µM and > 10 µM | 11 µM and > 10 µM
3 | C=C1CC[C@@H]2[C@](C)(COC(C)=O)[C@H](OC(C)=O)CC[C@@]2(C)[C@@H]1CC(Nc1ccc(S(=O)(=O)Nc2ccc(Cl)nn2)cc1)C1=CCOC1=O (some centres undefined) | 3.99 µM | 2.63 µM | 3.29 µM | 2.3 µM | 5 µM | 3.14 µM | 7.89 µM | 3.9 µM | 2.32 µM | 3.05 µM | 1.77 µM | 1.23 µM | 1.77 µM | 0.882 µM | 2.08 µM | 1.69 µM | 2.7 µM | 1.72 µM | 1.08 µM | 1.68 µM
4 | O=[N+]([O-])c1ccc(N=Nc2ccc(O)c3ccccc23)cc1 | 21.8 µM | > 100 µM | 39.4 µM | > 100 µM | > 100 µM | > 100 µM | 2.94 µM | 32.7 µM | 13.8 µM | 25.8 µM | 3.23 µM | 10.3 µM | 4.87 µM | 3.29 µM | 5.27 µM | 8.59 µM | 0.281 µM | 12 µM | 2.02 µM | 3.12 µM
5 | CCC[CH2][Sn]1([CH2]CCC)[O]C2C(CO)OC(n3ccc(N)nc3=O)C2[O]1 (centres undefined) | 2.29 µM | 2.72 µM | 2.48 µM | 2.7 µM | 2.78 µM | 2.88 µM | 1.98 µM | 2.15 µM | 2.79 µM | 2.87 µM | 0.964 µM | 1.41 µM | 1.22 µM | 1.27 µM | 1.02 µM | 1.54 µM | 0.361 µM | 0.701 µM | 1.44 µM | 1.52 µM
6 | Nc1ncnc2c1c(-c1ccc(Oc3ccccc3)cc1)nn2C[C@@H]1SSC[C@H]1O | 3.13 µM | 8.02 µM | 5.18 µM | 7.31 µM | 4.2 µM | 8.31 µM | 5.87 µM | 6.45 µM | 5.23 µM | 8.21 µM | 0.826 µM | 1.02 µM | 1.82 µM | 1.16 µM | 1.34 µM | 2.41 µM | 1.75 µM | 1.25 µM | 0.364 µM | 2.48 µM
7 | Cc1nn(C)c(COc2ccc(N3CCN(S(=O)(=O)N(C)C)CC3)cc2)c1-c1cccc2c(CCCOc3cccc4ccccc34)c(C(=O)O)n(CCN3CCOCC3)c12 | 4.35 µM | 6.17 µM | 6.98 µM | 22.9 µM | 11.7 µM | 6.97 µM | 6.56 µM | 15.5 µM | 15 µM | 11.5 µM | 1.95 µM | 2.44 µM | 2.72 µM | 7.62 µM | 3.52 µM | 2.52 µM | 2.01 µM | 3.15 µM | 3.08 µM | 3.13 µM
8 | CCOC(=O)C1CCCCN1C(=O)c1ccc(Nc2cnc3cc(C(F)(F)F)ccc3n2)cc1 (centres undefined) | 67.3 µM | 37.1 µM | 8.45 µM | 42.6 µM | 40.8 µM | 16.4 µM | 5.93 µM | 22.1 µM | 28.1 µM | 32.2 µM | 23.2 µM | 15.8 µM | 3.23 µM | 17.2 µM | 19.3 µM | 4.82 µM | – | 6.89 µM | 14.9 µM | 11.3 µM
9 | COc1ccc(C2=CC(c3ccc(OC)cc3Br)N3C=CSC3=N2)cc1 (centres undefined) | 31.3 µM | 17.1 µM | 22 µM | 3.41 µM | 30.7 µM | 28.7 µM | 41.8 µM | 32.3 µM | 3.17 µM | 14 µM | 15.2 µM | 4.61 µM | 7.67 µM | 1.49 µM | 7.31 µM | 13.1 µM | 5.78 µM | 14 µM | 1.66 µM | 3.23 µM
10 | COC(=O)C(CC1=C(O)Nc2ccccc2N1)/C(=N/NC(N)=O)C(=O)Nc1ccccc1C (centres undefined) | > 100 µM | > 100 µM | > 100 µM | 34.1 µM | > 100 µM | > 100 µM | > 100 µM | > 100 µM | 36.8 µM | > 100 µM | – | – | – | – | – | – | – | – | – | –
11 | O=[N+]([O-])c1ccc(N2CCC(CCCC3CCN(c4ccc([N+](=O)[O-])cc4[N+](=O)[O-])CC3)CC2)c([N+](=O)[O-])c1 | 32 µM | 36.7 µM | 35.4 µM | 41.6 µM | 25.3 µM | 28.7 µM | 26.4 µM | 42.4 µM | > 100 µM | 29.2 µM | – | – | – | – | – | – | – | – | – | –
12 | Nc1c(C(=O)c2cccc(-c3cccnc3)c2)cnn1-c1ccc(F)cc1F | > 18.4 µM | > 25 µM | > 25 µM | > 25 µM | > 25 µM | > 25 µM | 17.4 µM | > 20.9 µM | > 25 µM | > 25 µM | 3.87 µM | 8.32 µM | 7.91 µM | 1.11 µM | 2.06 µM | 18.1 µM | 1.94 µM | 2.26 µM | 2.87 µM | 6.79 µM
13 | COC(=O)Nc1nc2ccc(Oc3cccc(NC(=O)Nc4cc(C(F)(F)F)ccc4F)c3)cc2[nH]1 | 19.5 µM | > 25 µM | > 25 µM | > 25 µM | > 25 µM | > 25 µM | > 22.2 µM | > 25 µM | > 25 µM | > 25 µM | 5.28 µM | > 21.6 µM | 10.4 µM | 11.8 µM | 12.1 µM | > 25 µM | 2.94 µM | 6.04 µM | 7.71 µM | 15.4 µM
